Publication PMC10286969, “Characterization of the biochemical activity and tumor-promoting role of the dual protein methyltransferase METL-13/METTL13 in Caenorhabditis elegans” (PLOS ONE, 2023)

Target: T1, MT13-C (C-terminal MTase domain fragment of METL-13) (Caenorhabditis elegans, UniProt Q17539)
T1 construct: C-terminal methyltransferase fragment, residues 213-656, N-terminal His6 tag (pET28a), expressed in E. coli, Ni-NTA purified
T1 sequence (Q17539 213-656): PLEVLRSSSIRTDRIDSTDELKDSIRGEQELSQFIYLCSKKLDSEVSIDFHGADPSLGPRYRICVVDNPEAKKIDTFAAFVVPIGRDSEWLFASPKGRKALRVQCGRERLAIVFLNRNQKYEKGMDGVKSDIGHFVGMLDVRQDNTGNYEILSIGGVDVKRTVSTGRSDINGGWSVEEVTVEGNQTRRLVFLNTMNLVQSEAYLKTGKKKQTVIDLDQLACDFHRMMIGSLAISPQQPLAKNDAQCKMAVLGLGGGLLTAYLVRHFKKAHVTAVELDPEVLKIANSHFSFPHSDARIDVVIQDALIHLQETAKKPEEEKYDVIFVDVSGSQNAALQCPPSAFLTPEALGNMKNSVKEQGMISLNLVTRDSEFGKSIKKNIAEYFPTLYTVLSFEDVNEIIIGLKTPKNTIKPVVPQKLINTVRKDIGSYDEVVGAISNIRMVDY
Experiment: in vitro methyltransferase assay, SDS-PAGE fluorography
Format: biochemical
Details: methyl donor; protein substrate recombinant human eEF1A1 with C-terminal His tag (N-terminal G2 methylation); labelled compound (tritium); pH 7.4, 100 mM NaCl, 10% glycerol, 30 °C, 1 h

C[S+](CC[C@H](N)C(=O)O)C[C@H]1O[C@@H](n2cnc3c(N)ncnc32)[C@H](O)[C@@H]1O (stereo partly shown) [[^3H]-AdoMet]
in vitro methyltransferase assay, SDS-PAGE fluorography: C. elegans MT13-N or MT13-C as enzymes, human eEF1A1 as the substrate and [^3H]AdoMet
